Experimental data: patent publication US20220273659A1, “HETEROCYCLIC COMPOUNDS AS KINASE INHIBITORS” (NUVATION BIO INC., priority 2019, published 2022)
Read-outs that look alike come from different tables or passages of the source.

Key:
[1] = test system: DU4475 breast carcinoma cells; test: Cancer cell proliferation assay, single agent (cell viability); type: cell-based; conditions: Homo sapiens, DU-4475; Table 4; Rb negative; treatment 144 Hr with medium change at 72 Hr; Cell Titer-Glo or resazurin
Outline: (§1)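 Cells seeded day 1, then exposed on day 2 to 7–9 compound concentrations (e.g. 1.1 nM–10 μM); BT-549 for 24 h, MCF-7 and DU4475 for 144 h with medium change at 72 h. Viability by CellTiter-Glo or resazurin; IC50 from variable-slope sigmoidal fit.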

[2] = target: T1, CDK6 (Homo sapiens, UniProt Q00534); test: In vitro kinase inhibition IC50, luminescence (ADP Glo), retinoblastoma substrate; type: biochemical; conditions: read-out: CDK6/D1 IC50
T1 construct: purchased Invitrogen PR8422B
T1 sequence (Q00534 whole entry): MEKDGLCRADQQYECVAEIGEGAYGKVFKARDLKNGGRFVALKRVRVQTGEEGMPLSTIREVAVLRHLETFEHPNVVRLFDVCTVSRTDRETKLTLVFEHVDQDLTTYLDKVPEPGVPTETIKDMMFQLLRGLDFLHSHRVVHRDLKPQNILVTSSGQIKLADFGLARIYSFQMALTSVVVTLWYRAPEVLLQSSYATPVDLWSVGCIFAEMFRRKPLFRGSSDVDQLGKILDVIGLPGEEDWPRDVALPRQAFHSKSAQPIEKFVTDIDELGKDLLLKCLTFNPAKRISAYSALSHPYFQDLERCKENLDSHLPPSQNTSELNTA
T1 sequence (P24385 whole entry partner): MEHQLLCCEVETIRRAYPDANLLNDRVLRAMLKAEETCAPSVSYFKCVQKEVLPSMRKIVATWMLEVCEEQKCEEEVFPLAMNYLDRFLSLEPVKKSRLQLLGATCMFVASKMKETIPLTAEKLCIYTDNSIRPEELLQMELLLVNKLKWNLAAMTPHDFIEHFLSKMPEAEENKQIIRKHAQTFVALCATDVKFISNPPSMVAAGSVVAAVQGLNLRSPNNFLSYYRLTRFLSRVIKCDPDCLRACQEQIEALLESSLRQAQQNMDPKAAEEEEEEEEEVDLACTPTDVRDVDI
Outline: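 Recombinant CDK6 (5 nM) with retinoblastoma substrate (1 μM) and 25 μM ATP, compound at final 0.1–200 nM, incubated 2 h at room temperature. ADP formed detected by ADP-Glo luminescence. IC50 from four-parameter logistic fit of percent inhibition.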

[3] = target: T2, CDK4 (Homo sapiens, UniProt P11802); test: as above; type: biochemical; conditions: read-out: CDK4/D1 IC50
T2 construct: purchased Invitrogen PR8064A
T2 sequence (P11802 whole entry): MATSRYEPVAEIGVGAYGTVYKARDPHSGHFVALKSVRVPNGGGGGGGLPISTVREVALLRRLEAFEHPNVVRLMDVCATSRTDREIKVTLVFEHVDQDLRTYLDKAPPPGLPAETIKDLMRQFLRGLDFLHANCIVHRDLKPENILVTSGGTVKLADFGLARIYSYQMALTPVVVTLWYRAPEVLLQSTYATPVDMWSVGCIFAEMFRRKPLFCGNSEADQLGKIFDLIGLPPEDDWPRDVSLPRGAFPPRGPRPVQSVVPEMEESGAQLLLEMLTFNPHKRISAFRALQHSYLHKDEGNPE
T2 sequence (P24385 whole entry partner): as the sequence (P24385 whole entry partner) above
Outline: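 CDK4 enzyme (5 nM, Invitrogen) was combined with test compound and a mix of retinoblastoma substrate (1 μM) plus ATP (25 μM) in kinase buffer, 30 μL/well in 96-well half area white plates. After 2H at room temperature, ADP Glo reagent stopped the reaction for 45 min, then detection reagent was added and luminescence was read.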

[4] = target: T3, CDK2 (cyclin A) (Homo sapiens, UniProt P24941); test: Z'-LYTE kinase assay; type: biochemical
T3 construct: purchased Invitrogen Life Technologies (assay service)
Outline: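 FRET-based Z′-LYTE read-out using 1.22–10.3 ng CDK2/cyclin A with Ser/Thr 12 peptide (2 μM in the 2× mix) and ATP (31 μM as the 4× solution), in HEPES pH 7.5, MgCl2, EGTA and BRIJ-35, for 60 min at room temperature. After 1 h of development, the 445/520 nm emission was read, and percent inhibition was fitted to a four-parameter logistic curve for IC50.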

[5] = target: T4, PI3Kδ kinase (Homo sapiens, UniProt O00329); test: PI3Kδ kinase assay (ADP-Glo, Reaction Biology); type: biochemical
T4 construct: purchased Reaction Biology Corporation (assay service)
T4 sequence (O00329 whole entry): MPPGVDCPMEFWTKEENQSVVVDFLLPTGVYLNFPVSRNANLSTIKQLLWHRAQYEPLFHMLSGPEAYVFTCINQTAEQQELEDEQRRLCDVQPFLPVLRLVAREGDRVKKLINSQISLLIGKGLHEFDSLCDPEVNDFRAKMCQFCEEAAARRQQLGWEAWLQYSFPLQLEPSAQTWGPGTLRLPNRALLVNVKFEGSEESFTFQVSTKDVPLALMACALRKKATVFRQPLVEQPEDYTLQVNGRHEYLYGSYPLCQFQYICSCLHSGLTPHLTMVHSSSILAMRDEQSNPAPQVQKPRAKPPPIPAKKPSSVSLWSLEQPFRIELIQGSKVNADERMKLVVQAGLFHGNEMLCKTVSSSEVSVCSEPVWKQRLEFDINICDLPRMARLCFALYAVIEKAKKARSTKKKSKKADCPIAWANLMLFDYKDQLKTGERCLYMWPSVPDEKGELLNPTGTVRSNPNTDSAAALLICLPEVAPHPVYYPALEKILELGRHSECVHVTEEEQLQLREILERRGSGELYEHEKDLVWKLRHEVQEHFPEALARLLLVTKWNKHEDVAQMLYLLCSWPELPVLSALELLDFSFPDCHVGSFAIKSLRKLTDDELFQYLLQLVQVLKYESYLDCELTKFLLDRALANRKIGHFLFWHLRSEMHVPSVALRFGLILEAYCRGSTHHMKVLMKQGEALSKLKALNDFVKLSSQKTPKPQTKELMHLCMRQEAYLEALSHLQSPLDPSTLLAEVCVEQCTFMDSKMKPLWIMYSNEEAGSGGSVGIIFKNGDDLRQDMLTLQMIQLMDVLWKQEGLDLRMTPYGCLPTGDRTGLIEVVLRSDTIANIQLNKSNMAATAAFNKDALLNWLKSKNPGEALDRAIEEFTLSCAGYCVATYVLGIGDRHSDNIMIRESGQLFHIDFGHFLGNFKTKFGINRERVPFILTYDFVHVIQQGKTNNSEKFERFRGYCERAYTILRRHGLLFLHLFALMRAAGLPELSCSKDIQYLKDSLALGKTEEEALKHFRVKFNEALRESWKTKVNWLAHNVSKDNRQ
T4 sequence (P27986 whole entry partner): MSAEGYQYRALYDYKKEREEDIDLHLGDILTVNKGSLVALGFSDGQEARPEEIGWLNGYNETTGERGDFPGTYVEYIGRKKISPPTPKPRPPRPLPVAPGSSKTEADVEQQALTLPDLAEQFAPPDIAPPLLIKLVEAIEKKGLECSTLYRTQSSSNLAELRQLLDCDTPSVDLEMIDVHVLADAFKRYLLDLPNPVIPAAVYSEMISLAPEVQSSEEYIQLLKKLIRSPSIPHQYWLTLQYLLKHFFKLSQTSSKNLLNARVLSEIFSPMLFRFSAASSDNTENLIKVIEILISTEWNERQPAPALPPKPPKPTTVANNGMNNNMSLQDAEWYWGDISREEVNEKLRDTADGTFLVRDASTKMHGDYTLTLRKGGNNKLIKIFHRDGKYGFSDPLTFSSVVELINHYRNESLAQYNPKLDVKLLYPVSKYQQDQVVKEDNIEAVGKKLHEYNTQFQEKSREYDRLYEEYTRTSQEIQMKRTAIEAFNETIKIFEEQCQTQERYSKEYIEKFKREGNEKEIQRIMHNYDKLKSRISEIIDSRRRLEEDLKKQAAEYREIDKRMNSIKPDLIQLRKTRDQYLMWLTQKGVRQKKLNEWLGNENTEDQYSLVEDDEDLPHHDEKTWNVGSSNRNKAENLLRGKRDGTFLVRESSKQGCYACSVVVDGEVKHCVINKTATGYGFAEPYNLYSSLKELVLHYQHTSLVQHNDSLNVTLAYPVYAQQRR
Outline: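 Kinase in Tris-HCl 40 mM pH 7.5, MgCl2 20 mM, orthovanadate 3 mM, DTT 2 mM, 0.05% CHAPS, 1% DMSO, preincubated 10 min at room temperature with compound (about 0.5 nM–100 μM). ATP started a 30-min reaction at 30 °C. ADP-Glo luminescence converted to μM ADP via standard curve; IC50 from nonlinear regression.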

[6] = target: T5, CDK1 (cyclin B) (Homo sapiens, UniProt P06493); test: Z'-LYTE kinase assay; type: biochemical
T5 construct: purchased Invitrogen Life Technologies (assay service)
T5 sequence (P06493 whole entry): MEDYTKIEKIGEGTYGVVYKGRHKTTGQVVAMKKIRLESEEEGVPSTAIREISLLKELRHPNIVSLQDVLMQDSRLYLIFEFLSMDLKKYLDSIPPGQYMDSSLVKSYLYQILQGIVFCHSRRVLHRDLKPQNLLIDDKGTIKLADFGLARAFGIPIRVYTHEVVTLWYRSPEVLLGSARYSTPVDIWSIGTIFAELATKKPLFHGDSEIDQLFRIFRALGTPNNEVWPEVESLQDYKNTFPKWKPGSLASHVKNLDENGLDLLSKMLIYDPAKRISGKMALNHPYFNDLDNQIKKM
T5 sequence (P14635 whole entry partner): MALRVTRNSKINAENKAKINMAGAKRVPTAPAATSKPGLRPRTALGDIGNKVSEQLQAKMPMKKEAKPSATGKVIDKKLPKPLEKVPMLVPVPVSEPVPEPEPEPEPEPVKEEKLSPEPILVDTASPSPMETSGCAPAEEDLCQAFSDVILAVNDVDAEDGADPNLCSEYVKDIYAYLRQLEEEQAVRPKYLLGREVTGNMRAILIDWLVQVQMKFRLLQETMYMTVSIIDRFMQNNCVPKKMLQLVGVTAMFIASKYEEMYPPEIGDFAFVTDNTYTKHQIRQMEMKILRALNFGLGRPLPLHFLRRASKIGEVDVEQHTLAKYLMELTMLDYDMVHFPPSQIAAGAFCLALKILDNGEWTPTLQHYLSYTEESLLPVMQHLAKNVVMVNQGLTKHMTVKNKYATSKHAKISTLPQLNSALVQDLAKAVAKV
Procedure: The plates were shaken for 30 seconds, and incubated for 60 minutes at room temperature. […] The plates were read on fluorescence plate reader with Dual emission at 445 nm and 520 nm.
The following equations were used for Z′-LYTE™ Screening Assay Data Analysis.

[7] = target: T6, FMS kinase (Homo sapiens, UniProt P07333); test: LanthaScreen Eu Kinase Binding Assay (ATP, fluorescent-PolyGT substrate); type: biochemical
T6 construct: purchased Invitrogen (Life Technologies)
T6 sequence (P07333 20-972): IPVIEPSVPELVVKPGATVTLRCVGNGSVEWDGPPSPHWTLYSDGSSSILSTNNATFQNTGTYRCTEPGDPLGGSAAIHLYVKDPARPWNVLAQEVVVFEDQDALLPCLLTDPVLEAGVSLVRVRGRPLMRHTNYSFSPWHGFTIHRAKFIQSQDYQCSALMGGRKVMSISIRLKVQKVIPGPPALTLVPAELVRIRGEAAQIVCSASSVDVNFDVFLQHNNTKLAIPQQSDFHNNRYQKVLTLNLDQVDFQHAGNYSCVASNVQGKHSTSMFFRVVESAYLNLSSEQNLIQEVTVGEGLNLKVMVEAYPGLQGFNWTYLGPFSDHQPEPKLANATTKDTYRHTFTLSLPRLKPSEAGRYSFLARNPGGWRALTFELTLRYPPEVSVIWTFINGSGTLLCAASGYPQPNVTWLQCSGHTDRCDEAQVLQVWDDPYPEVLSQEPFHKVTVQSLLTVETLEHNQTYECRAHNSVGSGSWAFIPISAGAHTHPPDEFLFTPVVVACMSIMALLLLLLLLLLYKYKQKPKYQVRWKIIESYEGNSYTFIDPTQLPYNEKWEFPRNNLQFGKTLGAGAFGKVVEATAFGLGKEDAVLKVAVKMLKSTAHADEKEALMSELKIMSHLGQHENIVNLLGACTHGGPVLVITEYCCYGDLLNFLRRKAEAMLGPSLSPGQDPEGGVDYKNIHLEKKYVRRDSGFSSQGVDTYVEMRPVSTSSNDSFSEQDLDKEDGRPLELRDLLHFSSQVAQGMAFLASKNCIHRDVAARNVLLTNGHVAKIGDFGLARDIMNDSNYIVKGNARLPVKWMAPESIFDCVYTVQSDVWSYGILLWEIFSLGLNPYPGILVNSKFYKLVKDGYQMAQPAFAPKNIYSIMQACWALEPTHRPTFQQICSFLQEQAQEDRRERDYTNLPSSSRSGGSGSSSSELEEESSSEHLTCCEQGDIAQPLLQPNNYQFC
Outline: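 Kinase (1.25 nM) preincubated 10 min with 3-fold compound dilutions, then ATP 10 μM and fluorescent PolyGT substrate 200 nM added for 1 h in the dark at room temperature. Stopped with Tb-antibody (4 nM) and EDTA 20 mM; TR-FRET at 340 nm excitation, 495/520 nm emission; IC50 from four-parameter fit.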

[8] = test system: MCF-7 breast adenocarcinoma cells; test: Cancer cell proliferation assay, single agent (cell viability); type: cell-based; conditions: Homo sapiens, MCF7, Table 4; Rb positive; treatment 144 Hr with medium change at 72 Hr; Cell Titer-Glo or resazurin
Outline: as §1

| SMILES | IC50 [1] [µM] | IC50 [2] [µM] | IC50 [3] [µM] | IC50 [4] [µM] | IC50 [5] [µM] | IC50 ([6]; read-out: CDK1/B IC50) [µM] | IC50 [7] [µM] | IC50 [8] [µM] | IC50 [6] [µM] |
| --- | --- | --- | --- | --- | --- | --- | --- | --- | --- |
| CN1CCN(c2ccc(Nc3cc4c(cn3)cc(C#N)c(=O)n4C3CCCC3)cc2)CC1 [Compound No. 87, 1-cyclopentyl-7-((4-(4-methylpiperazin-1-yl)phenyl)amino)-2-oxo-1,2-dihydro-1,6-naphthyridine-3-carbonitrile] | 6.71 | 0.021 | 0.058 | > 3.64 | 0.549 | > 5 |  |  |  |
| N#Cc1cc2cnc(Nc3ccc(N4CCNCC4)cc3)cc2n(C2CCCC2)c1=O [Compound No. 88, 1-cyclopentyl-2-oxo-7-((4-(piperazin-4-yl)phenyl)amino)-1,2-dihydro-1,6-naphthyridine-3-carbonitrile] | 1.56 | 0.012 | 0.034 | 1.1 | 0.905 | > 5 |  |  |  |
| CCC(C)n1c(=O)c(C#N)cc2cnc(NC3CCN(S(C)(=O)=O)CC3)nc21 (stereo not shown) [Compound No. 351, 8-(sec-butyl)-2-((1-(methylsulfonyl)piperidin-4-yl)amino)-7-oxo-7,8-dihydropyrido[2,3-d]pyrimidine-6-carbonitrile] | 1.41 | 0.015 | 0.048 | 0.018 |  | 0.117 | 1.16 | 0.205 |  |
| CCC(CC)n1c(=O)c(C#N)cc2cnc(NC3CCN(S(C)(=O)=O)CC3)nc21 [Compound No. 352, 2-((1-(methylsulfonyl)piperidin-4-yl)amino)-7-oxo-8-(pentan-3-yl)-7,8-dihydropyrido[2,3-d]pyrimidine-6-carbonitrile] | 1.13 | 0.021 | 0.069 | 0.029 |  |  | > 5 | 1.42 | 0.143 |
| N#Cc1cc2cnc(NC3CCN(S(=O)(=O)C(F)F)CC3)nc2n(C2CCCC2)c1=O [Compound No. 359, 8-cyclopentyl-2-((1-((difluoromethyl)sulfonyl)piperidin-4-yl)amino)-7-oxo-7,8-dihydropyrido[2,3-d]pyrimidine-6-carbonitrile] | 3.25 | 0.012 | 0.0014 | 1.87 |  | > 5 | > 5 | 0.33 |  |
| Cc1ccc(S(=O)(=O)N2CCC(Nc3ncc4cc(C#N)c(=O)n(C5CCCC5)c4n3)CC2)cc1 [Compound No. 360, 8-cyclopentyl-7-oxo-2-((1-tosylpiperidin-4-yl)amino)-7,8-dihydropyrido[2,3-d]pyrimidine-6-carbonitrile] | 1.42 | 0.013 | 0.0015 | < 0.001 |  |  | > 5 | 0.255 | 0.598 |
| N#Cc1cc2cnc(NC3CCN(S(=O)(=O)c4ccc(F)cc4)CC3)nc2n(C2CCCC2)c1=O [Compound No. 361, 8-cyclopentyl-2-((1-((4-fluorophenyl)sulfonyl)piperidin-4-yl)amino)-7-oxo-7,8-dihydropyrido[2,3-d]pyrimidine-6-carbonitrile] | 1.04 | 0.0071 | 0.0013 | < 0.001 |  |  | 0.539 | 0.31 | 0.157 |
| CS(=O)(=O)N1CC[C@@H](Nc2ncc3cc(C#N)c(=O)n(C4CCCC4)c3n2)[C@H](F)C1 [Compound No. 362, 8-cyclopentyl-2-((3R,4R)-3-fluoro-1-(methylsulfonyl)piperidin-4-ylamino)-7-oxo-7,8-dihydropyrido[2,3-d]pyrimidine-6-carbonitrile] | 2.68 | 0.015 | 0.006 | 0.082 |  |  | 0.09 | 0.765 | 1.28 |
| CS(=O)(=O)N1CC[C@H](Nc2ncc3cc(C#N)c(=O)n(C4CCCC4)c3n2)[C@H](F)C1 [Compound No. 363, 8-cyclopentyl-2-((3R,4S)-3-fluoro-1-(methylsulfonyl)piperidin-4-ylamino)-7-oxo-7,8-dihydropyrido[2,3-d]pyrimidine-6-carbonitrile] | 1.66 | 0.012 | 0.0017 | 0.017 |  |  | 0.138 | 0.265 | 0.233 |
